Biological target: T1, glucokinase (GK) (Homo sapiens, UniProt P35557)
T1 construct: I.D. No. 1 corresponds to residues 12-465 of glucokinase; made in house; host or cells: E. coli DH10b-T1r, pFLAG-CTC plasmid
T1 sequence (P35557 with tags, fused parts or gaps isoform P35557-2): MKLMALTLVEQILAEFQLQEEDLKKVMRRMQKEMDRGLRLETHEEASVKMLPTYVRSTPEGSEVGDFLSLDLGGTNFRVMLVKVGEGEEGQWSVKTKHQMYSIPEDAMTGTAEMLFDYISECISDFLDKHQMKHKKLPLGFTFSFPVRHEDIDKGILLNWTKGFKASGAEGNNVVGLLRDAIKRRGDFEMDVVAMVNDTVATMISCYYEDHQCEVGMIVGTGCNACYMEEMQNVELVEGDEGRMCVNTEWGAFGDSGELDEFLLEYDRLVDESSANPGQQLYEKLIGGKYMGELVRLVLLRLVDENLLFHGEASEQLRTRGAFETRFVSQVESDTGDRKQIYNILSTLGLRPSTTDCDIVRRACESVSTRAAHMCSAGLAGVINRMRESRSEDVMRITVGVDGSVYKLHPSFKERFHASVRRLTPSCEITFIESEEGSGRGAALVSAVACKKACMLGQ
Experiment: enzymatic glucokinase activity assay (ATP consumption, KinaseGlo luminescence)
Format: biochemical
Conditions: Against GK; Kact = concentration giving 50% of maximal increase in GK activity; 5 μM ATP, 5 mM Glucose, 60 min room temperature; values given as bins; read-out: pKact
Description: The activity of compounds as glucokinase activators may be assayed in vitro, in vivo or in a cell line. Provided below is an enzymatic glucokinase activity assay.
Purified glucokinase may be obtained as follows. DNA encoding residues 12-465 of the full-length sequence of the human enzyme may be amplified by PCR and cloned into the HindIII and EcoRI sites of pFLAG-CTC (Sigma). SEQ. I.D. No. 1 corresponds to residues 12-465 of glucokinase.
The expression of recombinant glucokinase protein may be carried out by transformation and growth of DH10b-T1r E. coli cells incorporating the (pFLAG-CTC) plasmid in LB media. Protein expression can be induced in this system by the addition of IPTG to the culture medium.
Recombinant protein may be isolated from cellular extracts by passage over Sepharose Q Fast Flow resin (Pharmacia). This partially purified GK extract may then be further purified by a second passage over Poros HQ10 (Applied Biosystems). The purity of GK may be determined on denaturing SDS-PAGE gel. Purified GK may then be concentrated to a final concentration of 20.0 mg/ml. After flash freezing in liquid nitrogen, the proteins can be stored at −78° C. in a buffer containing 25 mM TRIS-HCl pH 7.6, 50 mM NaCl, and 0.5 mM TCEP.
The activation properties of compounds for GK may be determined using a black 384-well-plate format under the following reaction conditions: 25 mM Hepes pH 7.2, 25 mM NaCl, 10 mM MgCl2, 0.01% Brij35, 1 mM DTT, 5 μM ATP, 5 mM Glucose 2% DMSO. The amount of ATP consumed may be determined quantitatively by addition of equal volume of luciferase reagent (luciferase+beetle luciferin—KinaseGlo Luminescent Kinase Assay kit from Promega). The luminescence intensity may be measured by using the Analyst HT from LJL Biosystems.
The assay reaction may be initiated as follows: 4 μl of substrate mixture (12.5 μM ATP and 12.5 mM Glucose) was added to each well of the plate, followed by the addition of 2 μl of activator (2 fold serial dilutions for 11 data points for each activator) containing 10% DMSO. 4 μL of 1.25 nM GK solution may be added to initiate the reaction. The reaction mixture may then be incubated at room temperature for 60 min, and quenched and developed by addition of 10 μL of luciferase reagent. Luminescence intensities of the resulting reaction mixtures may be measured after a 10 min incubation at room temperature. The luminescence intensity may be measured by using the Analyst HT from LJL Biosystems.
pKact and % ACTmax values may be calculated by non-linear curve fitting of the compound concentrations and luminescence intensities to a standard inhibition/activation equation.

| SMILES | EC50 [nM] |
| --- | --- |
| CCS(=O)(=O)c1ccc2c(=O)n(C(CC3CCCCC3)C(=O)Nc3ccc(F)cn3)cnc2c1 (stereo not drawn) [Compound 71, 3-Cyclohexyl-2-(7-ethanesulfonyl-4-oxo-4H-quinazolin-3-yl)-N-(5-fluoro-pyridin-2-yl)-propionamide] | 1000 to 1580 |
| Cn1c(=O)n(C(CC2CCCCC2)C(=O)Nc2nccs2)c(=O)c2cc(Cl)ccc21 (stereo not drawn) [Compound 39, 2-(6-chloro-1-methyl-2,4-dioxo-1,2-dihydroquinazolin-3(4H)-yl)-3-cyclohexyl-N-(thiazol-2-yl)propanamide] | ≥ 2000 |
| CS(=O)(=O)c1ccc2c(=O)n(C(CC3CCCCC3)C(=O)Nc3ncc(Cl)s3)cnc2c1 (stereo not drawn) [Compound 56, N-(5-Chloro-thiazol-2-yl)-3-cyclohexyl-2-(7-methanesulfonyl-4-oxo-4H-quinazolin-3-yl)-propionamide] | 1000 to 1580 |
| O=C(Nc1ncc(Cl)s1)C(CC1CCCCC1)n1c(=O)[nH]c2ccc(F)cc2c1=O (stereo not drawn) [Compound 38, N-(5-chlorothiazol-2-yl)-3-cyclohexyl-2-(6-fluoro-2,4-dioxo-1,2-dihydroquinazolin-3(4H)-yl)propanamide] | ≥ 2000 |
| CS(=O)(=O)c1ccc2c(=O)n(C(CC3CCCCC3)C(=O)Nc3ccccn3)cnc2c1 (stereo not drawn) [Compound 60, 3-Cyclohexyl-2-(7-methanesulfonyl-4-oxo-4H-quinazolin-3-yl)-N-pyridin-2-yl-propionamide] | ≥ 2000 |
| CS(=O)(=O)c1ccc2ncn([C@@H](CC3CCCCC3)C(=O)Nc3ccc(C(N)=O)cn3)c(=O)c2c1 [Compound 93, 6-[3-Cyclohexyl-2-(6-methanesulfonyl-4-oxo-4H-quinazolin-3-yl)-propionylamino]-nicotinamide] | 501 to 794 |
| CS(=O)(=O)c1ccc2c(=O)n(C(CC3CCCCC3)C(=O)Nc3ccc(F)cn3)cnc2c1 (stereo not drawn) [Compound 70, 3-Cyclohexyl-N-(5-fluoro-pyridin-2-yl)-2-(7-methanesulfonyl-4-oxo-4H-quinazolin-3-yl)-propionamide] | ≥ 2000 |
| COC(=O)c1ccc(NC(=O)C(CC2CCCCC2)n2cnc3c(S(C)(=O)=O)csc3c2=O)nc1 (stereo not drawn) [Compound 102, Methyl 6-(3-cyclohexyl-2-(7-(methylsulfonyl)-4-oxothieno[3,2-d]pyrimidin-3(4H)-yl)propanamido)nicotinate] | 1000 to 1580 |
| NC(=O)c1ccc(NC(=O)C(CC2CCCCC2)n2cnc3cc(S(=O)(=O)C4CC4)ccc3c2=O)nc1 (stereo not drawn) [Compound 91, 6-[3-Cyclohexyl-2-(7-cyclopropanesulfonyl-4-oxo-4H-quinazolin-3-yl)-propionylamino]-nicotinamide] | ≤ 398 |
| COC(=O)c1ccc(NC(=O)C(CC2CCCCC2)n2cnc3c(S(=O)(=O)C(C)C)csc3c2=O)nc1 (stereo not drawn) [Compound 104, Methyl 6-(3-cyclohexyl-2-(7-(isopropylsulfonyl)-4-oxothieno[3,2-d]pyrimidin-3(4H)-yl)propanamido)nicotinate] | 501 to 794 |
| CS(=O)(=O)c1ccc2ncn(C(CC3CCCCC3)C(=O)Nc3ccc(Cl)cn3)c(=O)c2c1 (stereo not drawn) [Compound 79, N-(5-Chloro-pyridin-2-yl)-3-cyclohexyl-2-(6-methanesulfonyl-4-oxo-4H-quinazolin-3-yl)-propionamide] | 501 to 794 |

Other lines, results leading:

| EC50 [nM] | SMILES |
| --- | --- |
| 1000 to 1580 | COC(=O)c1ccc(NC(=O)[C@H](CC2CCCCC2)n2cnc3ccc(F)cc3c2=O)nc1 [Compound 203, (S)-methyl 6-(3-cyclohexyl-2-(6-fluoro-4-oxoquinazolin-3(4H)-yl)propanamido)nicotinate] |
| ≥ 2000 | Cc1ccc(NC(=O)C(CC2CCCCC2)n2cnc3c(cnn3C)c2=O)nc1 (stereo not drawn) [Compound 110, 3-Cyclohexyl-2-(1-methyl-4-oxo-1H-pyrazolo[3,4-d]pyrimidin-5(4H)-yl)-N-(5-methylpyridin-2-yl)propanamide] |
| 1000 to 1580 | COC(=O)c1ccc(NC(=O)C(CC2CCCCC2)n2cnc3c(C)cc(Cl)cc3c2=O)nc1 (stereo not drawn) [Compound 207, methyl 6-(2-(6-chloro-8-methyl-4-oxoquinazolin-3(4H)-yl)-3-cyclohexylpropanamido)nicotinate] |
| 1000 to 1580 | CC(C)S(=O)(=O)c1csc2c(=O)n(C(CC3CCCCC3)C(=O)Nc3ccc(F)cn3)cnc12 (stereo not drawn) [Compound 105, 3-Cyclohexyl-N-(5-fluoropyridin-2-yl)-2-(7-(isopropylsulfonyl)-4-oxothieno[3,2-d]pyrimidin-3(4H)-yl)propanamide] |
| ≤ 398 | NC(=O)c1ccc(NC(=O)C(CC2CCCCC2)n2cnc3cc(C(=O)NC4CC4)ccc3c2=O)nc1 (stereo not drawn) [Compound 169, 3-(1-(5-carbamoylpyridin-2-ylamino)-3-cyclohexyl-1-oxopropan-2-yl)-N-cyclopropyl-4-oxo-3,4-dihydroquinazoline-7-carboxamide] |
| ≥ 2000 | O=C(Nc1ncc(Cl)s1)C(CC1CCCCC1)n1cnc2c(C(F)(F)F)cccc2c1=O (stereo not drawn) [Compound 142, N-(5-chlorothiazol-2-yl)-3-cyclohexyl-2-(4-oxo-8-(trifluoromethyl)-quinazolin-3(4H)-yl)propanamide] |
| ≤ 398 | O=C(NC1CC1)c1ccc2c(=O)n(C(CC3CCCCC3)C(=O)Nc3ncc(Cl)s3)cnc2c1 (stereo not drawn) [Compound 170, 3-(1-(5-chlorothiazol-2-ylamino)-3-cyclohexyl-1-oxopropan-2-yl)-N-cyclopropyl-4-oxo-3,4-dihydroquinazoline-7-carboxamide] |
